Earlier results on two compounds are cited in US20090148399A1, “Controlled release attractant for gravid female mosquitoes” (priority 2007, published 2009).

In this data set the test system is gravid female C. quinquefasciatus. The conditions noted are these: gravid female Culex quinquefasciatus.

With `Cc1c[nH]c2ccccc12` [3-Methyl indole], the oviposition attractancy entry is “highly effective attractant”.

As to `CCCCCCCCCC[C@H](OC(C)=O)[C@H]1CCCC(=O)O1` [(5R,6S)-6-acetetoxy-5-hexadecanolide], the oviposition attractancy entry is “attracts other females of the same species to deposit their eggs gregariously”.
